Like-named read-outs stand apart in the source and are kept apart here.
What was measured:
[1] = Tacrolimus blood pharmacokinetics without and with omeprazole 20 mg or famotidine 20 mg in kidney transplant patients (CMIA, non-compartmental analysis); format: in vivo, human; conditions: for Effect of single 20 mg co-administration on tacrolimus pharmacokinetic parameters: kidney transplant patients, day 2 vs day 1; for the mean C0/D ratio: pre-dose concentration / daily dose; for C0h, Q1: first quartile; for C0h, Q2: median; for C0h, Q3: third quartile; for concentration at 2 h / concentration at 6 h / AUC(0-t) / Cmax / AUC: human, whole blood, oral; for concentration at 2 h: read-out: C2; for concentration at 6 h: read-out: C6; for AUC(0-t): read-out: AUC0-6; for AUC: read-out: AUC2-6
Source text: The study, randomized, non-blinded, comprised 24 stabilized adult patients between 1–12 months after kidney transplantation (NCT05061303), who received a kidney from a deceased donor. Inclusion criteria were time since kidney transplantation (1–12 months after kidney transplantation) and standard immunosuppressive regimen (tacrolimus, mycophenolate mofetil, prednisone/methylprednisolone/deflazacort). In this group, 2 individuals withdrew their informed consent and were excluded from study. Each randomized patient was admitted to the Department of Nephrology, Transplantology and Internal Diseases of Poznan University of Medical Sciences for 2 days (48 h). The study used the simple randomization method. One of the authors of the study (no the principal researcher) generated a randomized sequence for assigning patients to groups. The random component (computer-generated random numbers) was used in the sequence generation process. Figure 1 presented CONSORT flow chart. No participant changed the group during the study. Standard laboratory tests (creatinine, estimated glomerular filtration rate (eGFR), complete blood count, proteinuria, erythrocyturia) were performed during the first 2 days of participation in the study. In addition, the glomerular filtration rate (GFR) was calculated for each patient using The Chronic Kidney Disease Epidemiology Collaboration (CKD-EPI) creatinine equation to estimate GFR. […] Patients received tacrolimus once daily in the form of tacrolimus monohydrate prolonged-release tablets (Envarsus®, Chiesi Farmaceutici), registration numbers: EU/1/14/935/00, EU/1/14/935/004, EU/1/14/935/006, EU/1/14/935/007 or in the form of tacrolimus monohydrate prolonged-release hard capsules (Advagraf®, Astellas Pharma Europe), registration numbers: EU/1/07/387/001, EU/1/07/387/003, EU/1/07/387/011, EU/1/07/387/007. […] All patients before the start of the study achieved tacrolimus steady state. […] The results were used to obtain the values of pharmacokinetic parameters and statistical evaluation. No study-related adverse events were reported by patients, physicians, medical staff, or others during the study.
In order to establish the tacrolimus metabolism rate in the patients, the blood concentration normalized by the dose (C/D ratio) was calculated. The C0/D ratio can be calculated by dividing the tacrolimus pre-dose concentration (C0) by the corresponding daily tacrolimus dose (D). […] The fast metabolizers group included patients with a C/D ratio of <1.05 ng/mL*1/mg, whereas if the aforementioned ratio was ≥1.55 ng/mL*1/mg, the participants were described as slow metabolizers ([Tholking et al., 2014]).
Tacrolimus concentrations were determined using CMIA, by means of Alinity i analyser ([Mei et al., 2018]). Samples were stored frozen (−10°C or below) for no longer than 6 months. Each sample was thoroughly mixed prior to determining concentration, and 200 μL of each sample was pipetted into a centrifuge tube. Subsequently, the dispenser was filled with the appropriate volume of […] Tacrolimus Whole Blood Precipitation Reagent, followed by the removal of air bubbles from the dispenser. 200 μL of […] Tacrolimus Whole Blood Precipitation Reagent was added to the contents of the first centrifuge tube. Each individual tube was capped, mixed immediately after adding the reagent and centrifuged for 5–10 s. The tubes were then centrifuged again for 4 min. Each tube was uncapped and the supernatant was decanted (poured off) into a Graft Pre-Treatment Tube. They were then vortexed for 5–10 s and assayed for the concentrations of tacrolimus.
Calibration was performed in duplicate samples by testing Calibrators A, B, C, D, E and F. Control samples were prepared by mixing 150 μL of the patient sample and 150 μL of […] Tacrolimus Calibrator A. One sample for each control level was tested once every 24 h as a quality control test. […]

[2] = no reference given; cited from earlier work
[3] = parameters: method as in Summary of Product Characteristics; conditions: ref Summary of Product Characteristics; cited from earlier work
[4] = parameters: method as in Susal and Dohler, 2019; conditions: ref Susal and Dohler, 2019, cited from earlier work
[5] = 2012, cited from earlier work
[6] = parameters: method as in Takahashi et al., 2007; conditions: ref Takahashi et al., 2007, cited from earlier work
[7] = 0.0376 mg/kg, group II, no FA (day 1)
[8] = 0.0611 mg/kg, group I, no OM (day 1)
[9] = 20 mg, group II, FA 20 mg (day 2)
[10] = with omeprazole 20 mg (day 2) vs no omeprazole (day 1)

NC(N)=Nc1nc(CSCCC(N)=NS(N)(=O)=O)cs1 [famotidine]
Effect of single 20 mg co-administration on tacrolimus pharmacokinetic parameters [1]: no significant changes

COc1ccc2[nH]c([S+]([O-])Cc3ncc(C)c(OC)c3C)nc2c1 (stereo not shown) [omeprazole]
bound to plasma proteins [2]: approximately 95%
Effect of single 20 mg co-administration on tacrolimus pharmacokinetic parameters [1]: significantly increases blood exposure of tacrolimus
elimination half-life in the body [3]: shorter than an hour

C=CC[C@@H]1/C=C(\C)C[C@H](C)C[C@H](OC)[C@H]2O[C@@](O)(C(=O)C(=O)N3CCCC[C@H]3C(=O)O[C@H](/C(C)=C/[C@@H]3CC[C@@H](O)[C@H](OC)C3)[C@H](C)[C@@H](O)CC1=O)[C@H](C)C[C@@H]2OC [tacrolimus]
bound to plasma proteins [2]: approximately 99%
the mean C0/D ratio ([1]; Group I (omeprazole group), mean ± SD): 2.02 ± 1.14 ng/mL*1/mg
the mean C0/D ratio ([1]; Group II (famotidine group), mean ± SD): 2.49 ± 0.76 ng/mL*1/mg
C2 ([1]; group I, 2 h, OM 20 mg (day 2)): 11.90 ± 5.03 ng/mL
AUC 0–6 normalized by the dose ([1]; group I, OM 20 mg (day 2)): 1308.01 ± 595.19 (ng × h/mL)/(mg/kg)
AUC 2–6 normalized by the dose ([1]; group I, OM 20 mg (day 2)): 939.13 ± 453.89 (ng × h/mL)/(mg/kg)
AUC0-6 ([1]; group I, no OM (day 1)): 54.23 ± 10.48 ng·h/mL
AUC 2–6 normalized by the dose ([1]; group I, no OM (day 1)): 832.98 ± 415.81 (ng × h/mL)/(mg/kg)
AUC 0–6 normalized by the dose ([1]; group II, FA 20 mg (day 2)): 1784.71 ± 447.89 (ng × h/mL)/(mg/kg)
AUC2-6 ([1]; group II, FA 20 mg (day 2)): 44.05 ± 11.28 ng·h/mL
AUC 2–6 normalized by the dose ([1]; group II, FA 20 mg (day 2)): 1268.57 ± 329.31 (ng × h/mL)/(mg/kg)
C0h, Q1 ([1]; group II, FA 20 mg (day 2)): Q1: 5.60 ng/mL
C0h, Q2 ([1]; group II, FA 20 mg (day 2)): Q2: 7.30 ng/mL
C0h, Q3 ([1]; group II, FA 20 mg (day 2)): Q3: 7.95 ng/mL
AUC 0–6 normalized by the dose ([1]; group II, no FA (day 1)): 1677.84 ± 358.32 (ng × h/mL)/(mg/kg)
AUC 2–6 normalized by the dose ([1]; group II, no FA (day 1)): 1196.79 ± 279.50 (ng × h/mL)/(mg/kg)
C0h, Q1 ([1]; group II, no FA (day 1)): Q1: 5.25 ng/mL
C0h, Q2 ([1]; group II, no FA (day 1)): Q2: 6.50 ng/mL
C0h, Q3 ([1]; group II, no FA (day 1)): Q3: 8.80 ng/mL
concentration at 2 h ([1]; 0.0376 mg/kg, group II, 2 h, no FA (day 1)): 10.3 ± 4.64 ng/mL
concentration at 6 h [1, 7]: 10.8 ± 3.16 ng/mL
AUC(0-t) [1, 7]: 59.1 ± 16.6 ng·h/mL
concentration at 2 h ([1]; 0.0611 mg/kg, group I, 2 h, no OM (day 1)): 9.4 ± 2.5 ng/mL
concentration at 6 h [1, 8]: 9.94 ± 3.03 ng/mL
Cmax ([1]; 0.0611 mg/kg, group I, no OM (day 1), mean ± SD): 11.2 ± 2.34 ng/mL
AUC [1, 8]: 38.7 ± 7.7 ng·h/mL
Cmax ([1]; 20 mg, group I, OM 20 mg (day 2), mean ± SD): 13.1 ± 4.3 ng/mL
AUC(0-t) ([1]; 20 mg, group I, OM 20 mg (day 2)): 63.1 ± 19.5 ng·h/mL
Cmax [1, 9]: 13.1 ± 4.17 ng/mL
AUC(0-t) [1, 9]: 62.1 ± 15.9 ng·h/mL
concentration at 2 h ([1]; group I, 2 h, OM 20 mg (day 2)): 11.9 ± 1.59 ng/mL
concentration at 2 h ([1]; group I, 2 h, no OM (day 1)): 9.4 ± 0.79 ng/mL
concentration at 6 h ([1]; group I, OM 20 mg (day 2)): 10.3 ± 1.99 ng/mL
concentration at 2 h ([1]; group II, 2 h, FA 20 mg (day 2)): 11 ± 4.27 ng/mL
concentration at 6 h ([1]; group II, FA 20 mg (day 2)): 11 ± 3.53 ng/mL
AUC ([1]; group I, OM 20 mg (day 2)): 44.3 ± 11.5 ng·h/mL
Cmax ([1]; group II, no FA (day 1)): 12.7 ± 4.39 ng/mL
AUC ([1]; group II, no FA (day 1)): 42 ± 11.5 ng·h/mL
Increase of tacrolimus AUC0-6 [1, 10]: 16.30%
Increase of tacrolimus AUC0-6 normalized by the dose [1, 10]: 12.88%
Increase of tacrolimus AUC2-6 [1, 10]: 14.58%
Increase of tacrolimus AUC2-6 normalized by the dose [1, 10]: 12.74%
Increase of tacrolimus C2h [1, 10]: 26.60%
6-year survival of the kidney graft ([4]; tacrolimus C0 4.0–4.9 ng/mL): 86.5%
6-year survival of the kidney graft ([4]; tacrolimus C0 5.0–6.9 ng/mL in the first 3 years after transplantation): over 88%
6-year survival of the kidney graft ([4]; tacrolimus C0 7.0–8.9 ng/mL in the first 3 years after transplantation): over 88%
6-year survival of the kidney graft ([4]; tacrolimus C0 <4 ng/mL): 82.6%
6-year survival of the kidney graft ([4]; tacrolimus C0 ≥9 ng/mL): 87.5%
increase in tacrolimus concentrations after omeprazole administration ([5]; kidney transplant patient, ref Zhao WFM. et al.): more than four-fold increase
tacrolimus blood trough level (C0) ([5]; postoperative day 3, 9 mg twice daily, before omeprazole, ref Zhao W. et al.): 19.6 ng/mL
tacrolimus blood trough level (C0) ([5]; postoperative day 4, 9 mg twice daily, before omeprazole, ref Zhao W. et al.): 29.2 ng/mL
serum creatinine (acute nephrotoxicity) ([5]; postoperative day 6, at tacrolimus C0 92 ng/mL with omeprazole, ref Zhao W. et al.): 160 µM
tacrolimus blood trough level (C0) ([5]; postoperative day 6, dose reduced to 7 mg, omeprazole given on day 5, ref Zhao W. et al.): 92 ng/mL
blood concentrations of tacrolimus ([6]; after switching omeprazole to oral rabeprazole 10 mg/day (day 21)): approximately 10 ng/mL
tacrolimus trough levels ([6]; on omeprazole, despite dose reductions from 17 to 9 mg/day): above 15 ng/mL
trough concentration of tacrolimus ([6]; post-transplant day 17, daily oral dose 17 mg, on ranitidine): 12.5 ng/mL
tacrolimus trough levels ([6]; post-transplant day 19, after start of intravenous omeprazole on day 18): 30.0 ng/mL

Reference: publication PMC11024357 (Frontiers in Pharmacology, 2024)
